Laboratory results from PubChem BioAssay (NCI).
Several values for one entry are separate records, joined by “and”; a condition that tells them apart may be missing. Identical values can stand only once.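 Results reflect a 48-hour exposure of cells in 96-well plates to compound at five concentrations. At the GI50, growth is halved. The concentration for full growth arrest is given as TGI.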

Legend:
Test in all cases: inhibition of tumour cell growth, NCI panel, 48 h
CCRF-CEM leukemia = tested on: CCRF-CEM leukemia
SNB-19 CNS = tested on: SNB-19 CNS
T-47D breast = tested on: T-47D breast
SK-OV-3 ovarian = tested on: SK-OV-3 ovarian
UACC-62 melanoma = tested on: UACC-62 melanoma
TK-10 renal = tested on: TK-10 renal
A498 renal = tested on: A498 renal
SW-620 colon = tested on: SW-620 colon
786-0 renal = tested on: 786-0 renal
ACHN renal = tested on: ACHN renal

Row | Structure (SMILES) | GI50 (CCRF-CEM leukemia) [µM] | TGI (CCRF-CEM leukemia) | TGI (SNB-19 CNS) | TGI (T-47D breast) [µM] | GI50 (SK-OV-3 ovarian) [µM] | TGI (SK-OV-3 ovarian) | TGI (UACC-62 melanoma) | GI50 (TK-10 renal) [µM] | TGI (TK-10 renal) | GI50 (A498 renal) [µM] | TGI (A498 renal) | GI50 (SW-620 colon) [µM] | TGI (SW-620 colon) | GI50 (786-0 renal) [µM] | TGI (786-0 renal) | GI50 (ACHN renal) [µM] | TGI (ACHN renal) | GI50 (SNB-19 CNS) [µM] | GI50 (T-47D breast) [µM] | GI50 (UACC-62 melanoma) [µM]
1 | CCC/C(=N\NC(=S)N1CCN(c2ccccn2)CC1)c1ccccn1 | < 0.001 | 0.0216 µM and 0.0281 µM | > 4.24 µM and 1.7 µM | 0.389 | 1.34 | 2.15 µM and 2.68 µM | 0.242 µM and 1.43 µM | 1.09 | > 5.42 µM and 2.46 µM | 0.194 | 3.93 µM and 1.36 µM | 0.0117 | 1.36 µM and 1.21 µM | 0.0284 | 1.82 µM and 1.94 µM | 0.0156 | > 3.16 µM and 1.24 µM |  |  | 
2 | COc1ccc(C(=O)Cn2c(C(=O)c3ccc(Cl)cc3)nc3ccccc32)cc1 | 3.02 | > 100 µM | > 100 µM | > 100 | 23.6 | > 100 µM | > 100 µM | > 62.9 | > 100 µM | 14.3 | > 100 µM | 4.4 | > 100 µM | 13.2 | > 27.3 µM | 22.9 | > 100 µM | 46.5 | > 38.9 | > 28.4
3 | COc1ccc(-c2ccc(C3CC(c4ccc(O)cc4)=NN3)o2)c([N+](=O)[O-])c1 (stereo not drawn) | 4.84 | > 100 µM | > 100 µM | > 100 | 19.8 | > 100 µM | > 100 µM | 40.1 | > 100 µM | 30.4 | > 100 µM | 37.3 | > 100 µM | 45.1 | > 100 µM | 42 | > 100 µM | 82.6 | 75 | 33.1
4 | Cn1ncc(=S)[nH]c1=S |  | > 100 µM | > 100 µM |  |  | > 100 µM | > 100 µM |  | > 100 µM |  | > 100 µM |  | > 100 µM |  | > 100 µM |  | > 100 µM |  |  | 
5 | Oc1ccc(C(c2ccccc2)(c2ccccc2)c2ccccc2)cc1 | 21.1 | 39.5 µM | 32.2 µM |  | 16.3 | 30 µM | 30.6 µM | 36.7 | 87.4 µM | 20.5 | 35.1 µM | 22.4 | 66.1 µM | 14.4 | 29.7 µM | 21.9 | 41.4 µM | 16.8 |  | 16
6 | CCNC(=O)C[C@@H]1N=C(c2ccc(Cl)cc2)c2cc(OC)ccc2-n2c(C)nnc21 | 7.44 | > 100 µM | > 100 µM | > 100 | 2.37 | > 100 µM | > 100 µM | 0.645 | > 53.8 µM | 1.73 | > 69.3 µM | > 31 | > 100 µM | 16.4 | > 100 µM | 7.4 | > 100 µM | 5.11 | 2.9 | 0.618
7 | O=C(Nc1ccc(Cl)c(C(F)(F)F)c1)C(=O)C(C(=O)/C=C/c1ccccc1)C1OC(=O)c2ccccc21 (stereo not drawn) |  | > 100 µM | > 100 µM |  |  | > 100 µM | > 100 µM |  | > 100 µM |  | > 100 µM |  | > 100 µM |  | > 100 µM |  | > 100 µM |  |  | 
